T/C data for 16 compounds are collected here from PubChem BioAssay AID328 (DTP/NCI, 2004).

Where “and” joins values, the source holds several entries; their conditions need not be identical. Identical values can stand only once. Inconclusive results and toxic doses are left out.

The test system of the experiment is BDF1 mice, P388 leukemia ip, median survival T/C. Put plainly: NCI In Vivo Anticancer Drug Screen. Data for tumor model P388 Leukemia (intraperitoneal) in B6D2F1 (BDF1) mice. The settings on record: endpoint: median survival time, higher = longer survival. The method, boiled down: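 Read-out is survival of treated animals expressed relative to the vehicle group, as a T/C ratio.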

Setting [1] is: dose: 6.25 mg/kg/injection, schedule: Q01DX009 (ip), vehicle: saline.
Setting [2] is: dose: 12.5 mg/kg/injection, schedule: Q01DX009 (ip), vehicle: saline.
[3] abbreviates: dose: 50.0 mg/kg/injection, schedule: Q01DX009 (ip), vehicle: saline with Tween-80.
[4] abbreviates: dose: 100.0 mg/kg/injection, schedule: Q01DX009 (ip), vehicle: saline with Tween-80.
Setting [5] is: dose: 200.0 mg/kg/injection, schedule: Q01DX009 (ip), vehicle: saline with Tween-80.
Where [6] appears, read: dose: 25.0 mg/kg/injection, schedule: Q01DX009 (ip), vehicle: saline.
[7] abbreviates: dose: 50.0 mg/kg/injection, schedule: Q01DX009 (ip), vehicle: saline.
Where [8] appears, read: dose: 100.0 mg/kg/injection, schedule: Q01DX009 (ip), vehicle: saline.
Where [9] appears, read: dose: 50.0 mg/kg/injection, schedule: Q04DX003 (ip), vehicle: saline with Tween-80.
[10] abbreviates: dose: 100.0 mg/kg/injection, schedule: Q04DX003 (ip), vehicle: saline with Tween-80.
Setting [11] is: dose: 200.0 mg/kg/injection, schedule: Q04DX003 (ip), vehicle: saline with Tween-80.
The mark [12] stands for this setting: dose: 400.0 mg/kg/injection, schedule: Q04DX003 (ip), vehicle: saline with Tween-80.

Take `O=NN(CCCl)C(=O)N[C@H]1CCCC[C@H]1Cl`: the T/C (dose: 1.0 mg/kg/injection, schedule: Q01DX009 (ip), vehicle: Klucel (hydroxypropylcellulose) (HPC)) was 104 % of control; the T/C (dose: 1.0 mg/kg/injection, schedule: Q04DX003 (ip), vehicle: Klucel (hydroxypropylcellulose) (HPC)) is 104 % of control; the T/C (dose: 1.5 mg/kg/injection, schedule: Q01DX009 (ip), vehicle: Klucel (hydroxypropylcellulose) (HPC)) is 116 % of control; the T/C (dose: 2.0 mg/kg/injection, schedule: Q04DX003 (ip), vehicle: Klucel (hydroxypropylcellulose) (HPC)) is 104 % of control; the T/C (dose: 2.3 mg/kg/injection, schedule: Q01DX009 (ip), vehicle: Klucel (hydroxypropylcellulose) (HPC)) is 104 % of control; the T/C (dose: 4.0 mg/kg/injection, schedule: Q04DX003 (ip), vehicle: Klucel (hydroxypropylcellulose) (HPC)) was 100 % of control. Moreover, the T/C is 153 % of control and 194 % of control (dose: 5.5 mg/kg/injection, schedule: Q01DX009 (ip), vehicle: Klucel (hydroxypropylcellulose) (HPC)); 159 % of control and 169 % of control and 216 % of control (dose: 8.5 mg/kg/injection, schedule: Q01DX009 (ip), vehicle: Klucel (hydroxypropylcellulose) (HPC)); 165 % of control (dose: 8.5 mg/kg/injection, schedule: Q04DX003 (ip), vehicle: Klucel (hydroxypropylcellulose) (HPC)); 305 % of control and 192 % of control (dose: 13.0 mg/kg/injection, schedule: Q01DX009 (ip), vehicle: Klucel (hydroxypropylcellulose) (HPC)); 235 % of control (dose: 13.0 mg/kg/injection, schedule: Q04DX003 (ip), vehicle: Klucel (hydroxypropylcellulose) (HPC)); 250 % of control and 333 % of control and 200 % of control (dose: 20.0 mg/kg/injection, schedule: Q01DX009 (ip), vehicle: Klucel (hydroxypropylcellulose) (HPC)). The T/C was 270 % of control and 300 % of control (dose: 20.0 mg/kg/injection, schedule: Q04DX003 (ip), vehicle: Klucel (hydroxypropylcellulose) (HPC)); 120 % of control (dose: 30.0 mg/kg/injection, schedule: Q01DX009 (ip), vehicle: Klucel (hydroxypropylcellulose) (HPC)); 300 % of control (dose: 30.0 mg/kg/injection, schedule: Q04DX003 (ip), vehicle: Klucel (hydroxypropylcellulose) (HPC)); 104 % of control (dose: 44.0 mg/kg/injection, schedule: Q01DX009 (ip), vehicle: Klucel (hydroxypropylcellulose) (HPC)); 300 % of control (dose: 44.0 mg/kg/injection, schedule: Q04DX003 (ip), vehicle: Klucel (hydroxypropylcellulose) (HPC)); 300 % of control (dose: 67.0 mg/kg/injection, schedule: Q04DX003 (ip), vehicle: Klucel (hydroxypropylcellulose) (HPC)).

As to `O=C(O)C(=O)O.O=C([O-])C(=O)O.O=C([O-])C(=O)O.O=C([O-])C(=O)[O-].[K+].[U]`, the T/C (dose: 1.02 mg/kg/injection, schedule: Q01DX009 (ip), vehicle: saline) is 90 % of control; the T/C (dose: 1.56 mg/kg/injection, schedule: Q01DX009 (ip), vehicle: saline) is 91 % of control; the T/C (dose: 2.34 mg/kg/injection, schedule: Q01DX009 (ip), vehicle: saline) was 95 % of control; the T/C under setting [1] was 95 % of control; the T/C (dose: 6.25 mg/kg/injection, schedule: Q04DX003 (ip), vehicle: saline) was 90 % of control; the T/C under setting [2] was 100 % of control. Also, the T/C (dose: 50.0 mg/kg/injection, schedule: Q04DX003 (ip), vehicle: saline) is 86 % of control.

With `C(=C\C1CC2CCCN2O1)/c1ccccc1` (stereo not drawn), the T/C is, setting by setting: (dose: 25.0 mg/kg/injection, schedule: Q01DX009 (ip), vehicle: saline with Tween-80) 100 % of control; under setting [3], 102 % of control and 105 % of control; under setting [4], 100 % of control; under setting [5], 98 % of control and 102 % of control.

`NC1C=CC(CCC(N)C(=O)O)C=C1` (stereo not drawn): the T/C by setting is: under setting [2], 100 % of control; under setting [6], 100 % of control and 105 % of control; under setting [7], 100 % of control; under setting [8], 110 % of control.

In the case of `Cc1cc(C(C)(CC(C)C)c2ccc(O)c(C)c2)ccc1O`, the T/C runs as follows: (dose: 100.0 mg/kg/injection, schedule: Q01DX009 (ip), vehicle: gum acacia) 120 % of control; (dose: 200.0 mg/kg/injection, schedule: Q01DX009 (ip), vehicle: gum acacia) 108 % of control.

`CCN(C(=O)Nc1ccccc1Cl)c1ccccc1`: the T/C was 95 % of control (dose: 100.0 mg/kg/injection, schedule: Q01DX001 (ip), vehicle: saline with Tween-80); 100 % of control (dose: 200.0 mg/kg/injection, schedule: Q01DX001 (ip), vehicle: saline with Tween-80); 100 % of control (dose: 400.0 mg/kg/injection, schedule: Q01DX001 (ip), vehicle: saline with Tween-80).

Turning to `O=C(NCCCCOc1ccc([N+](=O)[O-])cc1Cl)c1ccc(S(=O)(=O)F)cc1`, the T/C under setting [9] is 103 % of control; the T/C under setting [10] is 96 % of control and 112 % of control; the T/C under setting [11] is 106 % of control; the T/C under setting [12] is 90 % of control and 103 % of control.

For the compound `COc1cccc2c1C(=O)c1c(O)c3c(c(O)c1C2=O)C[C@@](O)(C(=O)CO)C[C@@H]3OC1CC(NC(=S)Nc2ccc(F)cc2)C(O)C(C)O1` (stereo partly drawn), the T/C is 90 % of control under setting [1], 150 % of control under setting [6], 106 % of control under setting [7] and 122 % of control under setting [8].

For the compound `CC1CCCC(C)(CO)O1` (stereo not drawn), the T/C by setting is: (dose: 100.0 mg/kg/injection, schedule: Q04DX003 (ip), vehicle: saline) 115 % of control; (dose: 200.0 mg/kg/injection, schedule: Q04DX003 (ip), vehicle: saline) 115 % of control; (dose: 400.0 mg/kg/injection, schedule: Q04DX003 (ip), vehicle: saline) 105 % of control.

Regarding `O=C(O)CCCNSc1ccccc1[N+](=O)[O-]`, under setting [4], the T/C is 124 % of control.

Turning to `Cc1cc(N(CCCl)CCCl)c(C)cc1NC(=O)c1ccccc1`, the T/C was 195 % of control (dose: 12.5 mg/kg/injection, schedule: Q01DX009 (ip), vehicle: saline with Tween-80); 190 % of control (dose: 16.5 mg/kg/injection, schedule: Q04DX003 (ip), vehicle: Klucel (hydroxypropylcellulose) (HPC)); 118 % of control (dose: 25.0 mg/kg/injection, schedule: Q04DX003 (ip), vehicle: Klucel (hydroxypropylcellulose) (HPC)); 113 % of control (dose: 37.5 mg/kg/injection, schedule: Q04DX003 (ip), vehicle: Klucel (hydroxypropylcellulose) (HPC)).

Turning to `CN(C)CCCNc1cc(/C=C/c2cccc3ccccc23)nc2ccccc12`, the T/C is 95 % of control under setting [3], 88 % of control under setting [4] and 101 % of control under setting [5].

On to `Cc1ccc2c(c1)NC(c1ccc(C(N)=S)cc1)N2` (stereo not drawn), for which the T/C was 97 % of control (dose: 25.0 mg/kg/injection, schedule: Q04DX003 (ip), vehicle: saline with Tween-80); 88 % of control under setting [9]; 87 % of control under setting [10].

Turning to `Nc1cc2c(c[n+](Cc3ccccc3)c3ccccc23)c2ccccc12`, the T/C (dose: 3.13 mg/kg/injection, schedule: Q04DX003 (ip), vehicle: other) was 98 % of control.

Regarding `CCC(C(=O)OC)C1CCCCC1` (stereo not drawn), the T/C by setting is: under setting [4], 107 % of control; under setting [10], 108 % of control; under setting [5], 111 % of control; under setting [11], 100 % of control; (dose: 400.0 mg/kg/injection, schedule: Q01DX009 (ip), vehicle: saline with Tween-80) 103 % of control; under setting [12], 104 % of control.

In the case of `O=[N+]([O-])c1ccc(OCc2ccc(S(=O)(=O)F)c(Cl)c2)c(Cl)c1`, the T/C is 115 % of control (dose: 100.0 mg/kg/injection, schedule: Q01DX001 (ip), vehicle: saline); 102 % of control (dose: 100.0 mg/kg/injection, schedule: Q01DX009 (ip), vehicle: Klucel (hydroxypropylcellulose) (HPC)); 100 % of control (dose: 200.0 mg/kg/injection, schedule: Q01DX001 (ip), vehicle: saline); 100 % of control (dose: 200.0 mg/kg/injection, schedule: Q01DX009 (ip), vehicle: Klucel (hydroxypropylcellulose) (HPC)); 103 % of control (dose: 400.0 mg/kg/injection, schedule: Q01DX001 (ip), vehicle: saline); 103 % of control (dose: 400.0 mg/kg/injection, schedule: Q01DX009 (ip), vehicle: Klucel (hydroxypropylcellulose) (HPC)).
